Results from ChEMBL document CHEMBL1123592, “Cluster significance analysis contrasted with three other quantitative structure-activity relationship methods” (J Med Chem, 1987).

Legend:
[1] = In vitro antibacterial activity was determined; antibacterial potency is less than 50% of that of lasalocid; format: functional
[2] = Partition coefficient (logP); format: physicochemical; settings: octanol/water
[3] = Dissociation constant was determined; format: physicochemical
[4] = In vitro antibacterial activity was determined; format: functional

Row | Compound | Activity [1] | logP [2] | pKa [3] | Activity [4]
1 | CCCCCCCCCC(=O)Oc1c(C)ccc(CC[C@@H](C)[C@H](O)[C@H](C)C(=O)[C@H](CC)[C@H]2O[C@](CC)([C@H]3CC[C@](O)(CC)[C@H](C)O3)C[C@@H]2C)c1C(=O)O | 0 | 2.75 |  | 
2 | CC[C@@H](C(=O)[C@@H](C)[C@@H](O)[C@H](C)CCc1c(NC(C)=O)cc(C)c(O)c1C(=O)O)[C@H]1O[C@](CC)([C@H]2CC[C@](O)(CC)[C@H](C)O2)C[C@@H]1C | 0 | 1.04 | 4.3 | 
3 | CC[C@@H](C(=O)[C@@H](C)[C@@H](O)[C@H](C)CCc1c(I)cc(C)c(O)c1C(=O)O)[C@H]1O[C@](CC)([C@H]2CC[C@](O)(CC)[C@H](C)O2)C[C@@H]1C [IODOLASALOCID] |  | 3.19 | 3.9 | 1
4 | CCCCCCCC(=O)Oc1c(C)ccc(CC[C@@H](C)[C@H](O)[C@H](C)C(=O)[C@H](CC)[C@H]2O[C@](CC)([C@H]3CC[C@](O)(CC)[C@H](C)O3)C[C@@H]2C)c1C(=O)O | 0 | 2.21 |  | 
5 | CCCCC(=O)Oc1c(C)ccc(CC[C@@H](C)[C@H](O)[C@H](C)C(=O)[C@H](CC)[C@H]2O[C@](CC)([C@H]3CC[C@](O)(CC)[C@H](C)O3)C[C@@H]2C)c1C(=O)O | 0 | 2.08 |  | 
6 | CC[C@@H](C(=O)[C@@H](C)[C@@H](O)[C@H](C)CCc1c(Br)cc(C)c(O)c1C(=O)O)[C@H]1O[C@](CC)([C@H]2CC[C@](O)(CC)[C@H](C)O2)C[C@@H]1C [BROMOLASALOCID] |  | 3.25 | 3.9 | 1
7 | CC[C@@H](C(=O)[C@@H](C)[C@@H](O)[C@H](C)CCc1c([N+](=O)[O-])cc(C)c(O)c1C(=O)O)[C@H]1O[C@](CC)([C@H]2CC[C@](O)(CC)[C@H](C)O2)C[C@@H]1C | 0 | 2.46 | 2.4 | 
8 | CC[C@@H](C(=O)[C@@H](C)[C@@H](O)[C@H](C)CCc1c(/N=C/c2ccccc2)cc(C)c(O)c1C(=O)O)[C@H]1O[C@](CC)([C@H]2CC[C@](O)(CC)[C@H](C)O2)C[C@@H]1C | 0 | 0.86 |  | 
9 | CC[C@@H](C(=O)[C@@H](C)[C@@H](O)[C@H](C)CCc1ccc(C)c(O)c1C(=O)O)[C@H]1O[C@](CC)([C@H]2CC[C@](O)(CC)[C@H](C)O2)C[C@@H]1C [LASALOCID] |  | 2.83 | 4.4 | 1
10 | CC[C@@H](C(=O)[C@@H](C)[C@@H](O)[C@H](C)CCc1c(N)cc(C)c(O)c1C(=O)O)[C@H]1O[C@](CC)([C@H]2CC[C@](O)(CC)[C@H](C)O2)C[C@@H]1C [AMINOLASALOCID] | 0 | 0.28 | 6 | 
11 | CC[C@@H](C(=O)[C@@H](C)[C@@H](O)[C@H](C)CCc1c(Cl)cc(C)c(O)c1C(=O)O)[C@H]1O[C@](CC)([C@H]2CC[C@](O)(CC)[C@H](C)O2)C[C@@H]1C [CHLOROLASALOCID] |  | 3.12 | 4 | 1
12 | CC[C@@H](C(=O)[C@@H](C)[C@@H](O)[C@H](C)CCc1ccc(C)c(OC(=O)c2ccc(Br)cc2)c1C(=O)O)[C@H]1O[C@](CC)([C@H]2CC[C@](O)(CC)[C@H](C)O2)C[C@@H]1C | 0 | 3.48 |  | 
13 | CC[C@@H](C(=O)[C@@H](C)[C@@H](O)[C@H](C)CCc1c([N+]#N)cc(C)c(O)c1C(=O)O)[C@H]1O[C@](CC)([C@H]2CC[C@](O)(CC)[C@H](C)O2)C[C@@H]1C [DIAZOLASALOCID] | 0 |  | 6.6 | 
